Source: US20020028938A1, “Prostaglandin endoperoxide H synthase biosynthesis inhibitors” (priority 1997, published 2002)

How the values were obtained:
[1] = system: carrageenan induced paw edema; assay: Carrageenan induced paw edema (CPE) in rats; format: in vivo; details: 10 mpk oral, rat, 3 hours after carrageenan; read-out: CPE % Inhib. @ 10 mpk
Method: (§1) For oral administration, test compounds were suspended on the day of use in 100% polyethyleneglycol (PEG 400) with a motorized homogenizer equipped with a Teflon-coated pestle (TRI-R Instrument, Jamaica, N.Y.).
(§2) To compare the mean responses of the treatment groups, analysis of variance was applied. Percent inhibition values were determined by comparing the individual treatment mean values to the mean of the control group. Linear regression was used to estimate IC50's/ED50's in appropriate assays.
Hingpaw edema was […] in male rats as described by Winter et al., Proc. Soc. Exp. Biol. Med., 1962, 111, 544. Briefly, male Sprague-Dawley rats weighing between 170 and 190 g were administered test compounds orally 1 hour prior to the subplantar injection of 0.1 ml of 1% sodium carrageenan (lambda carrageenan, Sigma Chemical Co., St Louis, Mo.) into the right hindpaw. Right paw volumes (ml) were measured immediately following injection of carrageenan for baseline volume measurements using a Buxco plethysmograph (Buxco Electronics, Inc., Troy, N.Y.). Three hours after the injection of carrageenan, right paws were remeasured and paw edema calculated for each rat by subtracting the zero time reading from the 3 hour reading. Data are reported as mean percent inhibition +/−SEM. Statistical significance of results was analyzed by Dunnetts multiple comparison test where p<0.05 was considered statistically significant.

[2] = system: prostaglandin biosynthesis in vivo (pleural lavage eicosanoids); assay: Rat carrageenan pleural inflammation (CIP) model; details: for inhibition in vivo at 10 mg/kg: 4 h, read-out: CIP % Inhib. @ 10 mpk
Method: as §1, §2
Pleural inflammation was induced in male adrenalectomized Sprague-Dawley rats following the method of Vinegar et al., Fed. Proc. 1976, 35, 2447-2456. Animals were orally dosed with experimental compounds, 30 minutes prior to the intrapleural injection of 2% lambda carrageenan (Sigma Chemical Co., St. Louis Mo.). Four hours later the animals were euthanized and the pleural cavities lavaged with ice cold saline. The lavage fluid was then added to two volumes of ice cold methanol (final methanol concentration 66%) to lyse cells and precipitate protein. Eicosanoids were determined by EIA as described above.

[3] = molecular target: T1, recombinant human Cox-1 (r-hu Cox1) (Homo sapiens, UniProt P23219); assay: Recombinant human PGHS-1 enzyme assay (RHUCX1); format: biochemical
T1 construct: made in house; host or cells: baculovirus/Sf9 insect cells (microsomes)
T1 sequence (P23219 24-599): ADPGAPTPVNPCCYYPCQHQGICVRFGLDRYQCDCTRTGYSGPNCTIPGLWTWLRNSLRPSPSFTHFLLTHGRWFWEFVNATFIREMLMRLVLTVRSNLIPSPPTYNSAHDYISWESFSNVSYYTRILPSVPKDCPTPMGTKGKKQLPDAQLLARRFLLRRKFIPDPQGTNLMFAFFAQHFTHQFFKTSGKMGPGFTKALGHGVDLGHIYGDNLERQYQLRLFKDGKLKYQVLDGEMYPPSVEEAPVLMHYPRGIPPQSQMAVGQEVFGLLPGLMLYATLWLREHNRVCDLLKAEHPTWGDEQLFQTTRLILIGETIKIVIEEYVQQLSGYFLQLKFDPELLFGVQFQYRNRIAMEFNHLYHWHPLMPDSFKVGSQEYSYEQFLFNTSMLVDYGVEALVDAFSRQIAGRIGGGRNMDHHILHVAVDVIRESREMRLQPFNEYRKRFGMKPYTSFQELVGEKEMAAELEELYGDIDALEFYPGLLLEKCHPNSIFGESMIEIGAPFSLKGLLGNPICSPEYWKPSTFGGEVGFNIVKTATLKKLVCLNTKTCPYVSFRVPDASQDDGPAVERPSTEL
Procedure, shortened: (§3)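 Prostaglandin biosynthesis was measured as PGE2 output, read by enzyme immunoassay after a 2.5-minute room-temperature reaction stopped with HCl and neutralized with NaOH.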

[4] = molecular target: T2, recombinant human Cox-2 (r-hu Cox-2) (Homo sapiens, UniProt P35354); assay: Recombinant human PGHS-2 enzyme assay (RHUCX2); format: biochemical; details: for IC50: read-out: RHUCX2 IC50 (parenthetical value)
T2 construct: made in house; host or cells: baculovirus/Sf9 insect cells (microsomes)
T2 sequence (P35354 18-604): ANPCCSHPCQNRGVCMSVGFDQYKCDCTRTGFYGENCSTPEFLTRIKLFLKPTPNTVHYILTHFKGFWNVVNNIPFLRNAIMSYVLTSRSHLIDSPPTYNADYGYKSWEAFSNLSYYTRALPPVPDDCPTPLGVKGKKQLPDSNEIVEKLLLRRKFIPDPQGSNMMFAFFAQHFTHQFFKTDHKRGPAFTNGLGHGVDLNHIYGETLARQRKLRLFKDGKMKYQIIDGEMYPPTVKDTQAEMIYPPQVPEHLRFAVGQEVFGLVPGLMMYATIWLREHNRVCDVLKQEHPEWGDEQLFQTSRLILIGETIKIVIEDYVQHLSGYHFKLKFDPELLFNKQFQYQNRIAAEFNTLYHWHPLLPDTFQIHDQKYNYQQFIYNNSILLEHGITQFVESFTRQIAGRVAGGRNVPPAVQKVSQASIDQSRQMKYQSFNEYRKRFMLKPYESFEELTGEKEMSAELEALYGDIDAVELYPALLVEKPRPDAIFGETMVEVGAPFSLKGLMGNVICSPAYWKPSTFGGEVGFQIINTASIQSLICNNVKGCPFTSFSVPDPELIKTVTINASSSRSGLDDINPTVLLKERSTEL
Procedure, shortened: as §3

[5] = molecular target: T3, Human Whole Platelet Cyclooxygenase-1 (Homo sapiens, UniProt P23219); assay: Human Whole Platelet Cyclooxygenase-1 assay (HWPX); format: cell-based; details: read-out: HWPX IC50 (parenthetical value)
T3 construct: from tissue; host or cells: human blood: isolated platelets (A4) or heparinised whole blood (A9)
T3 sequence (P23219 24-599): as the sequence (P23219 24-599) above
Procedure, shortened: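 Washed platelets from healthy-donor ACD blood were pre-incubated with compound for 10 min, then stimulated with calcium ionophore A23187 (8.8 μM final) for 10 min. Reaction stopped with cold 6 mM EDTA; thromboxane in supernatants quantified with a commercial kit.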

[6] = molecular target: T4, human amnionic whole cell cyclooxygenase-2 (WISH cells) (Homo sapiens, UniProt P35354); assay: IL-1β induced PGE2 production in WISH cells; format: cell-based; details: read-out: Wish IC50 (parenthetical value)
T4 construct: endogenous in cells; host or cells: human amnionic WISH cells, induced with IL-1beta
T4 sequence (P35354 18-604): T2 sequence (P35354 18-604)
Procedure, shortened: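 Confluent (80%) WISH cells were stimulated with 5 ng/ml IL-1β in serum-free Neuman-Tytell medium, with or without test compound in DMSO (0.01% v/v). PGE2 in the culture medium was measured by EIA against standards prepared in the same medium, read by optical density.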

[7] = system: air pouch prostaglandin biosynthesis (Cox-2); assay: Carrageenan induced air pouch prostaglandin biosynthesis model (CAP); format: in vivo, rat; details: for inhibition in vivo at 3 mg/kg: 4 h, 3 mpk, rat, read-out: CAP % Inhib. @ 3 mpk; for ED50: Rattus norvegicus
Procedure, shortened: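 Male Sprague Dawley rats with dorsal air pouches (20 mL air day 0, 10 mL day 3) received 0.2% lambda carrageenan in saline into the pouch on day 7. Compounds dosed at 0.1 to 10 mg/kg 30 min before carrageenan; pouch lavaged 4 h later, prostaglandins measured by EIA. Percent inhibition versus control mean; ED50 by linear regression.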

[8] = 100 μM, read-out: RHUCX1 % Inh. at Dose
[9] = 0.1 μM, read-out: RHUCX2 % Inh. at Dose
[10] = 1 μM, read-out: RHUCX2 % Inh. at Dose

Compound | melting point [°C] | inhibition in vivo at 10 mg/kg [1] [%] | inhibition in vivo at 10 mg/kg ([2]; 10 mpk oral) [%] | inhibition at 100 µM [3, 8] [%] | IC50 [4] [nM] | IC50 [5] [µM] | IC50 [6] [nM] | inhibition in vivo at 3 mg/kg [7] [%] | also measured
CC(C)Oc1c(-c2ccc(S(C)(=O)=O)cc2)cnn(Cc2ccccc2)c1=O [Example 74, 2-Benzyl-4-(2-propoxy)-5-[4-(methylsulfonyl)phenyl]-3(2H)-pyridazinone] | 109 to 111 | 18 | 46.5 | 11 | – | – | – | – | –
CS(=O)(=O)c1ccc(-c2cnn(CC(F)(F)F)c(=O)c2-c2ccc(F)c(Cl)c2)cc1 [Example 54, 2-(2,2,2-Trifluoroethyl)-4-(3-chloro-4-fluorophenyl)-5-[4-(methylsulfonyl)phenyl]-3(2H)-pyridazinone] | 165 to 166 | 30 | 31 | 0 | – | – | – | – | inhibition at 0.1 µM [4, 9]: 58%; inhibition at 1 µM [4, 10]: 95%
CS(=O)(=O)c1ccc(-c2cnn(CC(F)(F)F)c(=O)c2-c2ccc(F)cc2)cc1 [Example 34, 2-(2,2,2-Trifluoroethyl)-4-(4-fluorophenyl)-5-[4-(methylsulfonyl)-phenyl]-3(2H)-pyridazinone] | 177 to 179 | 31 | 36 | 16 | 920 | – | – | – | –
CS(=O)(=O)c1ccc(-c2cnn(-c3ccccc3)c(=O)c2-c2ccc(F)cc2)cc1 [Example 12, 2-Phenyl-4-(4-fluorophenyl)-5-[4-(methylsulfonyl)phenyl]-3(2H)-pyridazinone] | 219 to 220 | 25 | 42 | 0 | – | – | – | – | inhibition at 0.1 µM [4, 9]: 9%; inhibition at 1 µM [4, 10]: 77%; inhibition at 10 µM ([4]; 10 μM, read-out: RHUCX2 % Inh. at Dose): 97%
CS(=O)(=O)c1ccc(-c2cnn(Cc3ccccc3)c(=O)c2-c2ccc(F)cc2)cc1 [Example 10, 2-Benzyl-4-(4-fluorophenyl)-5-[4-(methylsulfonyl)phenyl]-3(2H)-pyridazinone] | 101 to 103 | – | 44 | 2 | – | 4.1 | – | – | –
CS(=O)(=O)c1ccc(-c2cnn(-c3cccc(Br)c3)c(=O)c2-c2ccc(F)cc2)cc1 [Example 166, 2-(3-Bromophenyl)-4-(4-fluorophenyl)-5-[4-(methylsulfonyl)phenyl]-3(2H)-pyridazinone] | 210 to 212 | – | 40 | 3 | 199 | 9.4 | 20 | 59 | –
CC(C)(C)COc1c(-c2ccc(S(N)(=O)=O)cc2)cnn(CC(F)(F)F)c1=O [Example 446] | 123 to 124 | 44 | – | – | 373 | 24.4 | 20 | 92 | ED50 [7]: 0.5 mg/kg; inhibition at 200 µM ([3]; 200 μM, read-out: RHUCX1 % Inh. at Dose): 0%
CC(C)COc1c(-c2ccc(S(N)(=O)=O)cc2)cnn(-c2ccc(F)c(F)c2)c1=O [Example 403, 2-(3,4-Difluorophenyl)-4-(2-methylpropoxy)-5-[4-(aminosulfonyl)phenyl]-3(2H)-pyridazinone] | 169 to 171 | 43 | – | – | – | 0.902 | 18 | 68.5 | inhibition at 0.01 µM ([4]; 0.01 μM, read-out: RHUCX2 % Inh. at Dose): 36%; inhibition at 0.1 µM [4, 9]: 64%; inhibition at 1 µM [4, 10]: 92%; ED50 [7]: 0.35 mg/kg; IC50 ([3]; read-out: RHUCX1 IC50 (parenthetical value)): 151 µM
CC(C)(O)COc1c(-c2ccc(S(N)(=O)=O)cc2)cnn(-c2ccc(F)cc2)c1=O [Example 478, 2-(4-Fluorophenyl)-4-(2-hydroxy-2-methyl-1-propoxy)-5-[4-(aminosulfonyl)phenyl]-3(2H)-pyridazinone] | 155 to 158 | 26 | – | 33 | 810 | 0.5 | 108 | 75 | –
CS(=O)(=O)c1ccc(-c2cnn(-c3ccc(F)cc3)c(=O)c2-c2ccc(F)cc2)cc1 [Example 62, 2,4-Bis(4-fluorophenyl)-5-[4-(methylsulfonyl)phenyl]-3(2H)-pyridazinone] | 168 to 169 | 21 | 57 | 6 | 624 | – | – | – | –
CS(=O)(=O)c1ccc(-c2cnn(CC(F)(F)F)c(=O)c2-c2ccc(Cl)c(F)c2)cc1 [Example 67] | – | – | – | – | – | – | – | – | CIP % Inhib. ([2]; 3 mpk oral): 40 @ 3 mpk %
CS(=O)(=O)c1ccc(-c2cnn(-c3cc(F)cc(F)c3)c(=O)c2-c2ccc(F)cc2)cc1 [Example 180] | – | – | – | – | – | – | – | – | RHUCX2 % Inh. at Dose (μM) ([4]; 0.1 μM): 48 @ 0.1%; RHUCX2 % Inh. at Dose (μM) ([4]; 1 μM): 78 @ 1%; CIP % Inhib. @ 10 mpk ([2]; 10 mpk oral): 34.5%; RHUCX1 % Inh. at Dose (μM) ([3]; 100 μM): 8 @ 100%
NS(=O)(=O)c1ccc(-c2cnn(CC(F)(F)F)c(=O)c2-c2ccc(F)cc2)cc1 [Example 68, 2-(2,2,2-Trifluoroethyl)-4-(4-fluorophenyl)-5-[4-(aminosulfonyl)phenyl]-3(2H)-pyridazinone] | 193 to 195 | 40.3 | 64 | 32 | 297 | – | – | – | –
